Increase data for 1 molecule are collected here from ChEMBL document CHEMBL1147638, “(+/-)-cis-(6-Ethyl-tetrahydropyran-2-yl)-formic acid: a novel substance with antinociceptive properties” (2004).

Experiment [1] deals with Mus musculus. Put plainly: Increase in antinociceptive activity in mouse after oral administration at the dose of 1 mg/kg in tail flick test. The experiment is classed as functional. Background: Thermal pain tests record how soon the animal reacts.
Experiment [2] relates to Mus musculus. Put plainly: Increase in analgesic activity of compound after oral administration in mouse when compared with morphine in tail flick test. Type of experiment: functional.

`CC[C@@H]1CCC[C@H](C(=O)O)O1`: the Increase in experiment [1] was 40%; in experiment [2], 55%.
